Assay results: patent publication US20120165306A1, “PYRAZINYLPYRIDINES USEFUL FOR THE TREATMENT OF PROLIFERATIVE DISEASES” (priority 2009, published 2012)

molecular target: Cdk9/cyclinT1 (Homo sapiens, UniProt P50750); experiment: Cdk9/cyclinT1 kinase assay (IMAP or Alpha Screen protocol)
Sequence (P50750 whole entry): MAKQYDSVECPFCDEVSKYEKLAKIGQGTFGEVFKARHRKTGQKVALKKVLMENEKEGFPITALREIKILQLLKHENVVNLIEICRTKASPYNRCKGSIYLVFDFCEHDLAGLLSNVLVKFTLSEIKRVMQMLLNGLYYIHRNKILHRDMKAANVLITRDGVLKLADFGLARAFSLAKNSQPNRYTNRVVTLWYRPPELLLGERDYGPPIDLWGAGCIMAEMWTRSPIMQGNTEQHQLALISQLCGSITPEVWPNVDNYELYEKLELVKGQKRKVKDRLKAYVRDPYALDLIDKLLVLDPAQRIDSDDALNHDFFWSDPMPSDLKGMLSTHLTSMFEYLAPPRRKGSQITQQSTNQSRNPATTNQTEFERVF
Sequence (O60563 whole entry partner): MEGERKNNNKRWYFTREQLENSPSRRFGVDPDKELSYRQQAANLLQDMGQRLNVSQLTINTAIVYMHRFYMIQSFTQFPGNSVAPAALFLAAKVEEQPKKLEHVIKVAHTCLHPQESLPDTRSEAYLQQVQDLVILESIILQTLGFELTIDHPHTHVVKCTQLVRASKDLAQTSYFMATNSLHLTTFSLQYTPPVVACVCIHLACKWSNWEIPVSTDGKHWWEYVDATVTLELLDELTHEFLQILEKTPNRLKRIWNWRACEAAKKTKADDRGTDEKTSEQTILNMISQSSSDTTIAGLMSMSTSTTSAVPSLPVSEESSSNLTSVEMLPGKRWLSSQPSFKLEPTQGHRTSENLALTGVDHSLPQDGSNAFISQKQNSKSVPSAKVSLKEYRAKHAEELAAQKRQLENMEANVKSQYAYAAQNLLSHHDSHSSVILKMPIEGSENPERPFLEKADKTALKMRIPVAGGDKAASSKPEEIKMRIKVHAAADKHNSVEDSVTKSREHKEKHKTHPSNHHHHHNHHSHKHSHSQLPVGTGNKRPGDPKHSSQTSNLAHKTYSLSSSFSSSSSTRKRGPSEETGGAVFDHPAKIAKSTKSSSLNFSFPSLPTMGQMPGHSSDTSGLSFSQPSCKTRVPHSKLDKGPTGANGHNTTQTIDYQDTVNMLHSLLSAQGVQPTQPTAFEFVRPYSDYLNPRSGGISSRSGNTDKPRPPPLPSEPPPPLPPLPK

Row | Structure (SMILES) | IC50 [nM]
1 | CC(C)(C)OC(=O)N1CCC[C@@H](C(=O)Nc2cc(-c3cncc(NCC4CCOCC4)n3)c(Cl)cn2)C1 [Example 2, (R)-3-(5-Chloro-4-{6-[(tetrahydro-pyran-4-ylmethyl)-amino]-pyrazin-2-yl}-pyridin-2-ylcarbamoyl)-piperidine-1-carboxylic acid tert-butyl ester] | 16
2 | COCC(=O)Nc1cc(-c2cncc(NCC3CCOCC3)n2)c(Cl)cn1 [Example 10, N-(5-Chloro-4-{6-[(tetrahydro-pyran-4-ylmethyl)-amino]-pyrazin-2-yl}-pyridin-2-yl)-2-methoxy-acetamide] | 124
3 | O=C(Nc1cc(-c2cncc(NCCN3CCCC3=O)n2)c(Cl)cn1)[C@@H]1CCCNC1 [Example 32, (R)-Piperidine-3-carboxylic acid (5-chloro-4-{6-[2-(2-oxo-pyrrolidin-1-yl)-ethylamino]-pyrazin-2-yl}-pyridin-2-yl)-amide] | 20
4 | O=C(Nc1cc(-c2cncc(NCC3CCCCO3)n2)c(Cl)cn1)[C@@H]1CCCNC1 (stereo partly drawn) [Example 34, (R)-Piperidine-3-carboxylic acid (5-chloro-4-{6-[(tetrahydro-pyran-2-ylmethyl)-amino]-pyrazin-2-yl}-pyridin-2-yl)-amide] | 11
5 | CC(C)C(=O)Nc1cc(-c2cncc(NCC3CCOCC3)n2)c(C(F)(F)F)cn1 [Example 58, N-(4-{6-[(Tetrahydro-pyran-4-ylmethyl)-amino]-pyrazin-2-yl}-5-trifluoromethyl-pyridin-2-yl)-isobutyramide] | 146
6 | N[C@H]1CC[C@@H](C(=O)Nc2cc(-c3cncc(NCC4CCOCC4)n3)c(C(F)(F)F)cn2)C1 [Example 62, (1R,3S)-3-Amino-cyclopentanecarboxylic acid (4-{6-[(tetrahydro-pyran-4-ylmethyl)-amino]-pyrazin-2-yl}-5-trifluoromethyl-pyridin-2-yl)-amide] | 40
7 | COCCN1CCC[C@@H](C(=O)Nc2cc(-c3cncc(NCC4CCOCC4)n3)c(Cl)cn2)C1 [Example 3] | 316
8 | COCCNc1cncc(-c2cc(NC(=O)[C@@H]3CCCNC3)ncc2Cl)n1 [Example 35, (R)-Piperidine-3-carboxylic acid {5-chloro-4-[6-(2-methoxy-ethylamino)-pyrazin-2-yl]-pyridin-2-yl}-amide] | 47
9 | O=C(Nc1cc(-c2cncc(NC[C@@H]3CCCO3)n2)c(Cl)cn1)[C@@H]1CCCNC1 [Example 33, (R)-Piperidine-3-carboxylic acid [5-chloro-4-(6-{[(S)-1-(tetrahydro-furan-2-yl)methyl]-amino}-pyrazin-2-yl)-pyridin-2-yl]-amide] | 15
10 | O=C(Nc1cc(-c2cncc(N[C@@H]3CC34CCOCC4)n2)c(Cl)cn1)[C@@H]1CCCNC1 [Example 63, (R)-Piperidine-3-carboxylic acid (5-chloro-4-{6-[(R)-(6-oxa-spiro[2.5]oct-1-yl)amino]-pyrazin-2-yl}-pyridin-2-yl)-amide] | 47
11 | CS(=O)(=O)N1CCC[C@H](C(=O)Nc2cc(-c3cncc(NCC4CCOCC4)n3)c(C(F)(F)F)cn2)C1 [Example 65, (S)-1-Methanesulfonyl-piperidine-3-carboxylic acid (4-{6-[(tetrahydro-pyran-4-ylmethyl)-amino]-pyrazin-2-yl}-5-trifluoromethyl-pyridin-2-yl)-amide] | 103
12 | O=C(Nc1cc(-c2cncc(NCC3CCOCC3)n2)c(Cl)cn1)[C@@H]1CCCN1 [Example 40, (S)-Pyrrolidine-2-carboxylic acid (5-chloro-4-{6-[(tetrahydro-pyran-4-ylmethyl)-amino]-pyrazin-2-yl}-pyridin-2-yl)-amide] | 37
13 | CC(=O)N1CCC[C@@H](C(=O)Nc2cc(-c3cncc(NCC4CCOCC4)n3)c(Cl)cn2)C1 [Example 5, (R)-1-Acetyl-piperidine-3-carboxylic acid (5-chloro-4-{6-[(tetrahydro-pyran-4-ylmethyl)-amino]-pyrazin-2-yl}-pyridin-2-yl)-amide] | 268

Compounds with a lower IC50, results first:

Row | IC50 [nM] | Structure (SMILES)
14 | < 8 | O=C(Nc1cc(-c2cncc(NCC3CCCOC3)n2)c(Cl)cn1)[C@@H]1CCCNC1 (stereo partly drawn) [Example 26, (R)-Piperidine-3-carboxylic acid (5-chloro-4-{6-[(tetrahydro-pyran-3-ylmethyl)-amino]-pyrazin-2-yl}-pyridin-2-yl)-amide]
15 | < 8 | CS(=O)(=O)N1CCC[C@H](C(=O)Nc2cc(-c3cncc(NCC4CCOCC4)n3)c(Cl)cn2)C1 [Example 6]
16 | < 8 | O=C(Nc1cc(-c2cncc(NCc3cncc(F)c3)n2)c(Cl)cn1)[C@@H]1CCCNC1 [Example 16, (R)-Piperidine-3-carboxylic acid (5-chloro-4-{6-[(5-fluoro-pyridin-3-ylmethyl)-amino]-pyrazin-2-yl}-pyridin-2-yl)-amide]
17 | < 8 | CC(=O)N1CCC[C@H](C(=O)Nc2cc(-c3cncc(NCC4CCOCC4)n3)c(Cl)cn2)C1 [Example 48, (S)-1-Acetyl-piperidine-3-carboxylic acid (5-chloro-4-{6-[(tetrahydro-pyran-4-ylmethyl)-amino]-pyrazin-2-yl}-pyridin-2-yl)-amide]
18 | 8 | O=C(Nc1cc(-c2cncc(NCC3CCOCC3)n2)c(Cl)cn1)C1CCNCC1 [Example 22, Piperidine-4-carboxylic acid (5-chloro-4-{6-[(tetrahydro-pyran-4-ylmethyl)-amino]-pyrazin-2-yl}-pyridin-2-yl)-amide]
19 | < 8 | O=C(Nc1cc(-c2cncc(NCC3CCOCC3)n2)c(Cl)cn1)C1CCOCC1 [Example 15, Tetrahydro-pyran-4-carboxylic acid (5-chloro-4-{6-[(tetrahydro-pyran-4-ylmethyl)-amino]-pyrazin-2-yl}-pyridin-2-yl)-amide]
20 | < 8 | COC(=O)N[C@@H]1CC[C@H](C(=O)Nc2cc(-c3cncc(NCC4CCOCC4)n3)c(Cl)cn2)C1 [Example 53, [(1R,3S)-3-(5-Chloro-4-{6-[(tetrahydro-pyran-4-ylmethyl)-amino]-pyrazin-2-yl}-pyridin-2-ylcarbamoyl)-cyclopentyl]-carbamic acid methyl ester]
21 | < 8 | O=C(Nc1cc(-c2cncc(NCc3ccc(F)cc3)n2)c(Cl)cn1)[C@@H]1CCCNC1 [Example 20, (R)-Piperidine-3-carboxylic acid {5-chloro-4-[6-(4-fluoro-benzylamino)-pyrazin-2-yl]-pyridin-2-yl}-amide]
22 | < 8 | COCC(=O)N1CCC[C@H](C(=O)Nc2cc(-c3cncc(NCC4CCOCC4)n3)c(Cl)cn2)C1 [Example 47, (S)-1-(2-Methoxy-acetyl)-piperidine-3-carboxylic acid (5-chloro-4-{6-[(tetrahydro-pyran-4-ylmethyl)-amino]-pyrazin-2-yl}-pyridin-2-yl)-amide]
23 | < 8 | CS(=O)(=O)N[C@@H]1CC[C@H](C(=O)Nc2cc(-c3cncc(NCC4CCOCC4)n3)c(Cl)cn2)C1 [Example 50, (1S,3R)-3-Methanesulfonylamino-cyclopentanecarboxylic acid (5-chloro-4-{6-[(tetrahydro-pyran-4-ylmethyl)-amino]-pyrazin-2-yl}-pyridin-2-yl)-amide]
